The values below come from PMC11831487, “Novel Naphthyridones Targeting Pannexin 1 for Colitis Management” (Advanced Science, 2024).

Assay [1] deals with T1, Pannexin 1 (PANX1) (Homo sapiens, UniProt Q96RD7). Nature of the assay: To-Pro-3 uptake in HEK293T cells at […]. In kind it is cell-based. Also on record: C-terminally truncated hPANX1-CT-EGFP. To be noted: HEK-293T; read-out: Mean ± SEM ^a).
The target in assay [2] is T1, Pannexin 1 (PANX1). Nature of the assay: whole-cell voltage clamp in HEK293T cells (-50 mV); CETSA (Tagg […] to […] °C). Format: cell-based. Also on record: hPANX1(TEV)-EGFP cleaved by TEVp (currents); full-length hPANX1-FLAG (CETSA).

As usually defined, the IC50 is the concentration needed to halve the response being measured. Low values mean greater potency in that assay, high ones weaker potency in that assay.

SMILES strings stand for the structures.

T1 sequence (Q96RD7 1-379 limits assumed): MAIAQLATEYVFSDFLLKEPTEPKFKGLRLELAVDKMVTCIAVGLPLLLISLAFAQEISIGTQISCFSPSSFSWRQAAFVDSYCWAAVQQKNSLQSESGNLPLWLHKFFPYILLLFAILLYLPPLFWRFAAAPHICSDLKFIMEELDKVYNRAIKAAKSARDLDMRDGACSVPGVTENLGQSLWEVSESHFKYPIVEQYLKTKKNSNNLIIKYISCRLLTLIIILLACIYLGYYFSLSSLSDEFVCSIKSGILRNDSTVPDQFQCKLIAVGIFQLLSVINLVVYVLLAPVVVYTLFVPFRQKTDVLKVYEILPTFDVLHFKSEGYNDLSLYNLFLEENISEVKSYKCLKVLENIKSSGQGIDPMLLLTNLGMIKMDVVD

As to `N[C@@H]1[C@H]2CN(c3nc4c(cc3F)c(=O)c(C(=O)O)cn4-c3ccc(F)cc3F)C[C@@H]12` [Trovan, trovafloxacin], the inhibition at 20 µM at Pannexin 1 (PANX1) [1] stood at 87.3 ± 1.3%.

The molecule `COc1ccc(Cn2cc(C(=O)O)c(=O)c3cc(F)c(N4CCN(C)CC4)nc32)c(OC)c1` [compound 12, lithium 1‐(2,4‐dimethoxybenzyl)−6‐fluoro‐7‐(4‐methylpiperazin‐1‐yl)−4‐oxo‐1,4‐dihydro‐1,8‐naphthyridine‐3‐carboxylate] returned an IC50 at Pannexin 1 (PANX1) [2] of around 730 nM.
